# Tests used:
# Caspase 3 = experiment: Western blot, Caspase 3 levels; assay type: cell-based, human
# Protocol: The blots were stripped by incubating for 30 minutes with methanol, followed by two 10 minute washes with TBS-T, then 30 minutes of incubation with Stripping buffer at 50 deg C., and followed by two washes with 100 ml or more of TBS-T for 30′ each. The 2 blots were scanned in laser scanner to check for complete stripping. The blots were activated with methanol for 5 seconds, washed with water for 5 minutes, and TBST for 15 minutes. The blots were blocked for 1 hour with 5% blocking reagent in TBS-T at room temperature and then washed 3 times with TBS-T (1×-15′; 2×5′ each) and probed with the antibody for Caspase 3 in 5% BSA (Santacruz Biotechnology # sc7272) at 1:200 dilutions) overnight at 4 deg C. with shaking. After the overnight incubation with primary antibody for Caspase 3, the membranes were washed 3 times with TBS-T (1×-15′; 2×5′ each) and probed with the secondary antibody (antimouse; 1:10,000 dilution) for 1 h on the orbital tilting shaker at room temperature. After 1 h of incubation with secondary antibodies, the blots were washed 3 times with TBS-T (1×-15′; 2×5′ each) and then incubated with ECF reagent for 5 minutes and then each blot scanned with 5100 Fuji Laser scanner at 25 uM resolution, 16 bit, green laser, at 400V and at 500 V.
# The samples were processed and the gels were run, transferred, stained and scanned essentially as described above.
# The levels of Caspase 3 and actin were determined by probing the blots successively with primary antibodies for Caspase 3 and actin, essentially as described above.
# The Actin blots were stripped by incubating for 30 minutes with methanol, followed by two 10 minute washes with TBS-T, then 30 minutes of incubation with Stripping buffer at 50 deg C., and followed by two washes with 100 ml or more of TBS-T for 30′ each. The blots were scanned in laser scanner to check for complete stripping. The blots were activated with methanol for 5 seconds, washed with water for 5 minutes, and TBST for 15 minutes. The blots were blocked for 1 hour with 5% blocking reagent in TBS-T at room temperature and then washed 3 times with TBS-T (1×-15′; 2×5′ each) and probed with the primary antibody for Hif 1 alpha, Caspase 3 or PDHB in 5% BSA (at 1:200 by incubation overnight at 4 deg C. with gentle shaking. The primary antibody for Hif 1 alpha (Abcam ab2185; antirabbit) was at 1:500 dilution in 5% BSA. The primary antibody for Caspase 3 (Santacruz sc7272; antirabbit) was at 1:200 dilution in 5% BSA. The primary antibody for Pyruvate Dehydrogenase beta (PDHB) (Novus Biologicals H00005162-M03; antimouse) was at 1:500 dilution in 5% BSA. After incubation with primary antibodies, the membranes were washed 3 times with TBS-T (1×-15′; 2×5′ each) and probed with the secondary antibody (PDHB antimouse; Hif 1a and Caspase 3 antirabbit; 1:10,000 dilution) for 1 h at room temperature. After 1 h of incubation with secondary antibodies, the blots were washed 3 times with TBS-T (1×-15′; 2×5′ each) and then incubated with ECF reagent for 5 minutes and then each blot scanned with 5100 Fuji Laser scanner at 25 uM resolution, 16 bit, green laser, at 400V and at 500 V.
# The Actin blots were stripped by incubating for 30 minutes with methanol, followed by two 10 minute washes with TBS-T, then 30 minutes of incubation with Stripping buffer at 50 deg C., and followed by two washes with 100 ml or more of TBS-T for 30′ each. The blots were activated with methanol for 5 seconds, washed with water for 5 minutes, and TBST for 15 minutes. The blots were blocked for 1 hour with 5% blocking reagent in TBS-T at room temperature and then washed 3 times with TBS-T (1×-15′; 2×5′ each) and probed with the primary antibody for Caspase 3 or MMP-6 in 5% BSA by incubation overnight at 4 deg C. with gentle shaking. The primary antibody for Caspase 3 (Abcam ab44976-100; antirabbit) was at 1:500 dilution in 5% BSA. The primary antibody for MMP-6 (Santacruz scMM0029-ZB5; antimouse) was at 1:100 dilution in 5% BSA. […]
# [1] = tested on: Pancreatic Cancer Cells (PaCa2); experiment: Real-time PCR Apoptosis Array; assay type: cell-based; settings: 100 uM Q10, various times
# Protocol: (§1) Experiments were carried out essentially as described above.
# SK-MEL-28 mitochondria = experiment: LC-MS/MS quantification of Q10, Q10H2 and Q9 in mitochondrial enriched samples; assay type: cell-based; settings: for Q10 in mitochondrial enriched sample: 100 μM Q10 in the media; for increase in mitochondrial Q10 levels: 100 μM Q10
# Protocol: To control for sample variance in total material, the levels of cholesterol was also measured to confirm that the differences were not due to sample size errors.
# [2] = tested on: MCF-7 breast cancer cells; experiment: Oxygen consumption rate (OCR), SeaHorse XF analyzer; assay type: cell-based; settings: absence and presence of stressors (FIG. 31)
# Excerpt: (§2) Environmental influencers (e.g., MIMs or Epi-shifters) may also be identified by changes in cellular energetics. One example of the measurement of cellular energetics are the real-time measures of the consumption of molecular oxygen and/or the change in pH of the media of a cell culture. For example, the ability of a potential epi-shifter to modulate the metabolic state of a cell may be analyzed using, for example, the XF24 Analyzer (Seahorse, Inc.). This technology allows for real time detection of oxygen and pH changes in a monolayer of cells in order to evaluate the bioenergetics of a cell microenvironment. The XF24 Analyzer measures and compares the rates of oxygen consumption (OCR), which is a measure of aerobic metabolism, and extracellular acidification (ECAR), which is a measure of glycolysis, both key indicators of cellular energetics.
# (§3) (SeaHorse Biosciences Inc, North Billerica, Mass.).
# (§4) In contrast, cancer cells (e.g., MCF-7, PaCa-2) are inherently primed to culture at higher levels of glucose compared to normal cells due to their glycolytic phenotype for maintenance in culture.
# [3] = tested on: PaCa-2 pancreatic cancer cells; experiment: as above; assay type: cell-based; settings: absence and presence of stressors (FIG. 32)
# Excerpt: as §2, §3, §4
# [4] = tested on: Pancreatic Cancer Cells (PaCa2); experiment: Real-time PCR Diabetes Array; assay type: cell-based; settings: 100 uM Q10, various times
# Protocol: as §1
smiles,measurement,setting,value
"COC1=C(OC)C(=O)C(C/C=C(\C)CC/C=C(\C)CC/C=C(\C)CC/C=C(\C)CC/C=C(\C)CC/C=C(\C)CC/C=C(\C)CC/C=C(\C)CC/C=C(\C)CCC=C(C)C)=C(C)C1=O [Q10, Coenzyme Q10]",Caspase 3 Normalized Volume,"Caspase 3; HASMC, 5g48-50",766
same,Caspase 3 Normalized Volume,"Caspase 3; HASMC, 5g48-100",669
same,Caspase 3 Normalized Volume,"Caspase 3; HASMC, 22G24-50",835
same,Caspase 3 Normalized Volume,"Caspase 3; HASMC, 22G24-100",865
same,Caspase 3 Normalized Volume,"Caspase 3; HASMC, 22G48-50",639
same,Caspase 3 Normalized Volume,"Caspase 3; HASMC, 22G48-100",624
same,Caspase 3 Normalized Volume as a %,"Caspase 3; HepG2, 5g24-50, 2 Experiments",108%
same,Caspase 3 Normalized Volume as a %,"Caspase 3; HepG2, 5g24-100, 2 Experiments",176%
same,Caspase 3 Normalized Volume as a %,"Caspase 3; HepG2, 5g48-50, 2 Experiments",144%
same,Caspase 3 Normalized Volume as a %,"Caspase 3; HepG2, 5g48-100, 2 Experiments",95%
same,Caspase 3 Normalized Volume as a %,"Caspase 3; HepG2, 22G24-50, 2 Experiments",139%
same,Caspase 3 Normalized Volume as a %,"Caspase 3; HepG2, 22G24-100, 2 Experiments",178%
same,Caspase 3 Normalized Volume as a %,"Caspase 3; HepG2, 22G48-50, 2 Experiments",150%
same,Caspase 3 Normalized Volume as a %,"Caspase 3; HepG2, 22G48-100, 2 Experiments",145%
same,Caspase 3 Normalized Volume,"Caspase 3; PACA2, 5g-50, 24 h",325
same,Caspase 3 Normalized Volume,"Caspase 3; PACA2, 5g-50, 48 h",701
same,Caspase 3 Normalized Volume,"Caspase 3; PACA2, 5g-100, 24 h",374
same,Caspase 3 Normalized Volume,"Caspase 3; PACA2, 5g-100, 48 h",291
same,Caspase 3 Normalized Volume,"Caspase 3; PACA2, 22G-50, 24 h",675
same,Caspase 3 Normalized Volume,"Caspase 3; PACA2, 22G-50, 48 h",497
same,Caspase 3 Normalized Volume,"Caspase 3; PACA2, 22G-100, 24 h",842
same,Caspase 3 Normalized Volume,"Caspase 3; PACA2, 22G-100, 48 h",559
same,levels of caspase 3,Caspase 3; cancer cells,increased
same,expression of Caspase-3,Caspase 3; normal cells,moderately decreased
same,genes modulated by Q10 treatment (Apoptosis arrays),[1],"ABL1, AKT1, Bcl2L1, BclAF1, CASP1, CASP2, CASP6, CIDEA, FADD, LTA, TNF, TNFSF10A and TNFSF10"
same,Q10 in mitochondrial enriched sample,SK-MEL-28 mitochondria; 6 hr,7.21 ng/Sample
same,increase in mitochondrial Q10 levels,SK-MEL-28 mitochondria; 19 hours,~3 fold
same,Q10 in mitochondrial enriched sample,SK-MEL-28 mitochondria; 19 hr,16.77 ng/Sample
same,increase in mitochondrial Q10 levels,SK-MEL-28 mitochondria; 48 hour,~6 fold
same,Q10 in mitochondrial enriched sample,SK-MEL-28 mitochondria; 48 hr,46.63 ng/Sample
same,form of Q10 in mitochondria,SK-MEL-28 mitochondria; exogenous Q10 added to media,maintained in the supplied oxidized form
same,OCR values,[2],consistent reduction
same,OCR values,[3],consistent reduction
same,genes modulated by Q10 treatment (Diabetes arrays),[4],"ABCC8, ACLY, ADRB3, CCL5, CEACAM1, CEBRA, FOXG1, FOXP3, G6PD, GLP1R, GPD1, HNF4A, ICAM1, IGFBP5, INPPL1, IRS2, MAPK14, ME1, NFKB1, PARP1, PIK3C2B, PIK3CD, PPARGC1B, PRKAG2, PTPN1, PYGL, SLC2A4, SNAP25, HNF1B, TNRFSF1A, TRIB3, VAPA, VEGFA, IL4R and IL6"

# Source: patent US20110020312A1, “METHODS FOR TREATMENT OF METABOLIC DISORDERS USING EPIMETABOLIC SHIFTERS, MULTIDIMENSIONAL INTRACELLULAR MOLECULES, OR ENVIRONMENTAL INFLUENCERS” (priority 2009, published 2011)
